Laboratory results as given in ChEMBL document CHEMBL4507273 (2021).

Tests used:
[1] = molecular target: Serine/threonine-protein kinase N1 (Homo sapiens) (UniProt Q16512); details: Compound concentration 1000.0 nM
[2] = molecular target: Ephrin type-A receptor 1 (Homo sapiens) (UniProt P21709); details: Compound concentration 1000.0 nM
[3] = molecular target: Mast/stem cell growth factor receptor Kit (Homo sapiens) (UniProt P10721); details: Compound concentration 1000.0 nM
[4] = molecular target: Non-receptor tyrosine-protein kinase TYK2 (Homo sapiens) (UniProt P29597); details: Compound concentration 1000.0 nM
Sequence of Non-receptor tyrosine-protein kinase TYK2 (Homo sapiens) (P29597 whole entry): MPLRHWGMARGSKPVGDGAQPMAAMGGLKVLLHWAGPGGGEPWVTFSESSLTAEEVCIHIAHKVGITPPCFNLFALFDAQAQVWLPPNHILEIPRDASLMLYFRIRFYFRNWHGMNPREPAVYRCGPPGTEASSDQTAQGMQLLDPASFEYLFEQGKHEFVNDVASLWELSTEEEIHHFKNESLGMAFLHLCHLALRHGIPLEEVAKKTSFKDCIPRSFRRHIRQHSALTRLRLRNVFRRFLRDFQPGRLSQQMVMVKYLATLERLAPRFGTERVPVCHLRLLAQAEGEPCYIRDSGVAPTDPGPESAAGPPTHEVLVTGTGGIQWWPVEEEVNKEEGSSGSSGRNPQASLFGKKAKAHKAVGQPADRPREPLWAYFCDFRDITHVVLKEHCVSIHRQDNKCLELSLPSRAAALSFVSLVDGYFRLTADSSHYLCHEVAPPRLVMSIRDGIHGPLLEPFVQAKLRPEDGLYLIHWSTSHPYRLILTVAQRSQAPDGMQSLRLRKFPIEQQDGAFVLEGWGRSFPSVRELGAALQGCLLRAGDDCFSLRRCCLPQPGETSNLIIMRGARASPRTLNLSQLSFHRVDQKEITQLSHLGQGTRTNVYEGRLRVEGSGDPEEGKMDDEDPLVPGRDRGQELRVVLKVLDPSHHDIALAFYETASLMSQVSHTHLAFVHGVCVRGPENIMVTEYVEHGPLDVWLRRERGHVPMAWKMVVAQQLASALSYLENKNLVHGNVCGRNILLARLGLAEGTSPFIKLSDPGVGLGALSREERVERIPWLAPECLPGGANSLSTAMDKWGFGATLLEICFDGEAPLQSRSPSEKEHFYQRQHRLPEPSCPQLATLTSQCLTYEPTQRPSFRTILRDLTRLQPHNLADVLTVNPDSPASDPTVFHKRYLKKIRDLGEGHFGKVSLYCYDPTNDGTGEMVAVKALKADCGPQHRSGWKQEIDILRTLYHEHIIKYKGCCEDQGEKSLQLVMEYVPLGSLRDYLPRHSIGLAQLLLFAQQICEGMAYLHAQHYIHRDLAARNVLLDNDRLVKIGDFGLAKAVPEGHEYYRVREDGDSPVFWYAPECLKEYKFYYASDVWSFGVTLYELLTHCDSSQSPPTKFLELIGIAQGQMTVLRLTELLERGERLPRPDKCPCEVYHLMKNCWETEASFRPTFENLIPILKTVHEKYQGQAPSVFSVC

[5] = molecular target: SRSF protein kinase 3 (Homo sapiens) (UniProt Q9UPE1); details: Compound concentration 1000.0 nM
[6] = molecular target: 1-phosphatidylinositol 3-phosphate 5-kinase (Homo sapiens) (UniProt Q9Y2I7); details: Compound concentration 1000.0 nM
[7] = molecular target: Tyrosine-protein kinase SYK (Homo sapiens) (UniProt P43405); details: Compound concentration 1000.0 nM
[8] = molecular target: Beta-adrenergic receptor kinase 1 (Homo sapiens) (UniProt P25098); details: Compound concentration 1000.0 nM
Sequence of Beta-adrenergic receptor kinase 1 (Homo sapiens) (P25098 whole entry): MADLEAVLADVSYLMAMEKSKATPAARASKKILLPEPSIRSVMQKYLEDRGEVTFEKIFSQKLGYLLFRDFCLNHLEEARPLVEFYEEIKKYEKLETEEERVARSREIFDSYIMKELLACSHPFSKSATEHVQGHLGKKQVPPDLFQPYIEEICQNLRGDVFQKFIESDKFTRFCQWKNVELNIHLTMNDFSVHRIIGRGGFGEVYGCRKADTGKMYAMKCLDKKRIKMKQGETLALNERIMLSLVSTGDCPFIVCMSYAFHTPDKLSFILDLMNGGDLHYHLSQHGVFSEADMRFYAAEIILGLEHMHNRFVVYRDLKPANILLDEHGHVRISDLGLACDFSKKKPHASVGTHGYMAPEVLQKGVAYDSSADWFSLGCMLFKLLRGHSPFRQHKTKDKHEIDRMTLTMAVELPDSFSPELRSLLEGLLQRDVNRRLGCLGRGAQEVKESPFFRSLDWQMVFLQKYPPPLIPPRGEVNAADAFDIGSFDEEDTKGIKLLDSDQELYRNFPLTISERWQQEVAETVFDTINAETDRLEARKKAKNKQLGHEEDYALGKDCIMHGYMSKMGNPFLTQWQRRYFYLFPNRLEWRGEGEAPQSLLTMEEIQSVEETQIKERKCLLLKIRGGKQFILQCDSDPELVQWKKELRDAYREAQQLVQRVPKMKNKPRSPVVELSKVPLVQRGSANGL

[9] = molecular target: Inhibitor of nuclear factor kappa-B kinase subunit beta (Homo sapiens) (UniProt O14920); details: Compound concentration 1000.0 nM
[10] = molecular target: Serine/threonine-protein kinase Sgk3 (Homo sapiens) (UniProt Q96BR1); details: Compound concentration 1000.0 nM
Sequence of Serine/threonine-protein kinase Sgk3 (Homo sapiens) (Q96BR1 whole entry): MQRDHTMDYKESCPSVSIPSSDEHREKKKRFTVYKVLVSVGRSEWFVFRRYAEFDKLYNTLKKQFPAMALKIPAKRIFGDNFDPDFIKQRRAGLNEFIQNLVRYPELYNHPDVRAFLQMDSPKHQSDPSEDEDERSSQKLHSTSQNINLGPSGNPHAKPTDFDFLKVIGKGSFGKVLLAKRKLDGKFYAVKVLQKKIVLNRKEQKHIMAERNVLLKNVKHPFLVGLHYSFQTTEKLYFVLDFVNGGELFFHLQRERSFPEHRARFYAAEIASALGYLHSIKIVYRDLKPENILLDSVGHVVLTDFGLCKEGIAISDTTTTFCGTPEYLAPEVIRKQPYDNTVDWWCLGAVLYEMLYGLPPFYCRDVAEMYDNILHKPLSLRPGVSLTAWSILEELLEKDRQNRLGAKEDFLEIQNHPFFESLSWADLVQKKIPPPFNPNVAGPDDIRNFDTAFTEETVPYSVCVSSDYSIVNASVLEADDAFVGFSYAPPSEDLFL

[11] = molecular target: Serine/threonine-protein kinase NLK (Homo sapiens) (UniProt Q9UBE8); details: Compound concentration 1000.0 nM
[12] = molecular target: MAP kinase-activated protein kinase 5 (Homo sapiens) (UniProt Q8IW41); details: Compound concentration 1000.0 nM
[13] = molecular target: Tyrosine-protein kinase Fgr (Homo sapiens) (UniProt P09769); details: Compound concentration 1000.0 nM
[14] = molecular target: Misshapen-like kinase 1 (Homo sapiens) (UniProt Q8N4C8); details: Compound concentration 1000.0 nM
[15] = molecular target: Cyclin-dependent kinase 15 (Homo sapiens) (UniProt Q96Q40); details: Compound concentration 1000.0 nM
Sequence of Cyclin-dependent kinase 15 (Homo sapiens) (Q96Q40 whole entry): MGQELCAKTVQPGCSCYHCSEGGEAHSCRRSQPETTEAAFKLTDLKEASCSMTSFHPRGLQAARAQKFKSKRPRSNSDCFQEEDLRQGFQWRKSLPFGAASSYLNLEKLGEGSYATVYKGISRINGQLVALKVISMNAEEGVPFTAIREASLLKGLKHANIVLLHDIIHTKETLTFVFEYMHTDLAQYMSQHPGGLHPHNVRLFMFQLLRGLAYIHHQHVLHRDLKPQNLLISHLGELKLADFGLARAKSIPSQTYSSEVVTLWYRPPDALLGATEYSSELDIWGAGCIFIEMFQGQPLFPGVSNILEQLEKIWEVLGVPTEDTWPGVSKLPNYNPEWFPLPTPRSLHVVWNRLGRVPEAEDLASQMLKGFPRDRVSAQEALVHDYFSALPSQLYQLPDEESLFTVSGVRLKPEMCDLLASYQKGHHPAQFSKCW

[16] = molecular target: RAC-gamma serine/threonine-protein kinase (Homo sapiens) (UniProt Q9Y243); details: Compound concentration 1000.0 nM
[17] = molecular target: Myosin light chain kinase 2, skeletal/cardiac muscle (Homo sapiens) (UniProt Q9H1R3); details: Compound concentration 1000.0 nM
Sequence of Myosin light chain kinase 2, skeletal/cardiac muscle (Homo sapiens) (Q9H1R3 whole entry): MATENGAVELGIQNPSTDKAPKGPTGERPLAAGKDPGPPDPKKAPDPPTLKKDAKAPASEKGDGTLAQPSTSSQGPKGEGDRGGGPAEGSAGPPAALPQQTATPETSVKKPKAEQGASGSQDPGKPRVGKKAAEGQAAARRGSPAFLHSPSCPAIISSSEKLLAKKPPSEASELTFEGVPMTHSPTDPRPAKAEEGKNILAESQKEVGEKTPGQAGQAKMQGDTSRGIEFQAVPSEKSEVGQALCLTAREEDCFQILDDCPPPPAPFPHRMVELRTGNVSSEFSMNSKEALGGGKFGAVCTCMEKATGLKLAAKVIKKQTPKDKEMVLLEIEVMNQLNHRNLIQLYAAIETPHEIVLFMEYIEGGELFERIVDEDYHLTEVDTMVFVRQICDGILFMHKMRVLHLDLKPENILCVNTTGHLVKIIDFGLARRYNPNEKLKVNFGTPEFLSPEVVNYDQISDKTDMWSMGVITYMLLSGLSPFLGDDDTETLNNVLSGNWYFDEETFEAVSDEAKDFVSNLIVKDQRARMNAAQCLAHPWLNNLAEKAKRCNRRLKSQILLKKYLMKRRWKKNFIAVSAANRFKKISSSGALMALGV

[18] = molecular target: Serine/threonine-protein kinase LATS1 (Homo sapiens) (UniProt O95835); details: Compound concentration 1000.0 nM
[19] = molecular target: Myosin light chain kinase (Homo sapiens) (UniProt Q32MK0); details: Compound concentration 1000.0 nM
[20] = molecular target: Interferon-induced, double-stranded RNA-activated protein kinase (Homo sapiens) (UniProt P19525); details: Compound concentration 1000.0 nM
[21] = molecular target: AP2-associated protein kinase 1 (Homo sapiens) (UniProt Q2M2I8); details: Compound concentration 1000.0 nM
[22] = system: Epidermal growth factor receptor (Homo sapiens), P00533 [G719S]; details: Compound concentration 1000.0 nM
[23] = molecular target: Serine/threonine-protein kinase PLK1 (Homo sapiens) (UniProt P53350); details: Compound concentration 1000.0 nM
[24] = molecular target: 5-hydroxytryptamine receptor 3A (Homo sapiens) (UniProt P46098); details: Compound concentration 10.0 uM
Sequence of 5-hydroxytryptamine receptor 3A (Homo sapiens) (P46098 whole entry): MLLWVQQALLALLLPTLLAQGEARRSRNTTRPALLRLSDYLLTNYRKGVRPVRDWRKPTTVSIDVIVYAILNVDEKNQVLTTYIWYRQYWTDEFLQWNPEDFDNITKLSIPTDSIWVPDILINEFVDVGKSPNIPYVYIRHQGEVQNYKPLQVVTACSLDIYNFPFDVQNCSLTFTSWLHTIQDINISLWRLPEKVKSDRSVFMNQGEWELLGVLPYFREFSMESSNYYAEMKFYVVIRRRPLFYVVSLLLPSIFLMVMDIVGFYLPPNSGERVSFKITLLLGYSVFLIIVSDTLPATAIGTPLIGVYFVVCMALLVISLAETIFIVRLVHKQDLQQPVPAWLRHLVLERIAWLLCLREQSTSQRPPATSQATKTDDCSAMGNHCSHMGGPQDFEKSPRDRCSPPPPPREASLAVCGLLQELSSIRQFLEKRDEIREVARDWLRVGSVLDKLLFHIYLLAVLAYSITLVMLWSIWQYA

[25] = molecular target: Mitogen-activated protein kinase kinase kinase 13 (Homo sapiens) (UniProt O43283); details: Compound concentration 1000.0 nM
[26] = molecular target: Serine/threonine-protein kinase pim-1 (Homo sapiens) (UniProt P11309); details: Compound concentration 1000.0 nM
[27] = molecular target: Homeodomain-interacting protein kinase 1 (Homo sapiens) (UniProt Q86Z02); details: Compound concentration 1000.0 nM
[28] = molecular target: NUAK family SNF1-like kinase 1 (Homo sapiens) (UniProt O60285); details: Compound concentration 1000.0 nM
[29] = molecular target: Tyrosine-protein kinase FRK (Homo sapiens) (UniProt P42685); details: Compound concentration 1000.0 nM
[30] = molecular target: Sigma intracellular receptor 2 (Homo sapiens, UniProt Q5BJF2); details: Compound concentration 10.0 uM
Sequence of Sigma intracellular receptor 2 (Q5BJF2 whole entry): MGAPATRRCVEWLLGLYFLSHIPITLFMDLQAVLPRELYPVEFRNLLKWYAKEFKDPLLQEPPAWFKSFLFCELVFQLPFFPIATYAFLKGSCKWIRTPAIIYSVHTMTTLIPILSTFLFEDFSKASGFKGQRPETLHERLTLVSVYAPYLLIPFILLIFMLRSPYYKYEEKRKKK

[31] = molecular target: Serine/threonine-protein kinase VRK2 (Homo sapiens) (UniProt Q86Y07); details: Compound concentration 1000.0 nM
[32] = molecular target: Casein kinase I isoform alpha (Homo sapiens) (UniProt P48729); details: Compound concentration 1000.0 nM
[33] = molecular target: Serine/threonine-protein kinase DCLK2 (Homo sapiens) (UniProt Q8N568); details: Compound concentration 1000.0 nM
Sequence of Serine/threonine-protein kinase DCLK2 (Homo sapiens) (Q8N568 whole entry): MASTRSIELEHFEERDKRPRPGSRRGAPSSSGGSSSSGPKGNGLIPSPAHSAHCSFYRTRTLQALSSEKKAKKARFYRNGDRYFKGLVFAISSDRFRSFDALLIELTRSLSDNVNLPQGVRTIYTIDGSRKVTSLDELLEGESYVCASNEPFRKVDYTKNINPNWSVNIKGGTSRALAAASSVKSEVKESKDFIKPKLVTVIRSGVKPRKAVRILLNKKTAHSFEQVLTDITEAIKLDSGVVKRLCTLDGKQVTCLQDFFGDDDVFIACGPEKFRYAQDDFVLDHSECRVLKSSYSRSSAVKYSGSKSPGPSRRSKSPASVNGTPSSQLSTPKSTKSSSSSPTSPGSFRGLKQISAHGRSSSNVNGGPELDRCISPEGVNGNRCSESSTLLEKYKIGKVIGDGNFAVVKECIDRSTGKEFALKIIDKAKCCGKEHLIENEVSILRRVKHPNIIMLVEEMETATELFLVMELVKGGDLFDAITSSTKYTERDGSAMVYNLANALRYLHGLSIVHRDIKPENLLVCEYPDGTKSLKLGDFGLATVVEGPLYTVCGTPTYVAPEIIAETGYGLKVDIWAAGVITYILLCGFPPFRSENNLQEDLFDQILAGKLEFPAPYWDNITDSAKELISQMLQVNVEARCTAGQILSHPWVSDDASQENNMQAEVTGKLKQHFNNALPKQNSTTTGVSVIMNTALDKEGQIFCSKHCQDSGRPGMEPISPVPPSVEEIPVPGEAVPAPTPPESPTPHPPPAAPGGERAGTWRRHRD

[34] = molecular target: Serine/threonine-protein kinase PLK2 (Homo sapiens) (UniProt Q9NYY3); details: Compound concentration 1000.0 nM
[35] = molecular target: D(3) dopamine receptor (Homo sapiens, UniProt P35462); details: Compound concentration 10.0 uM
[36] = molecular target: Mitogen-activated protein kinase kinase kinase 1 (Homo sapiens) (UniProt Q13233); details: Compound concentration 1000.0 nM
[37] = molecular target: Serine/threonine-protein kinase pim-2 (Homo sapiens) (UniProt Q9P1W9); details: Compound concentration 1000.0 nM
[38] = molecular target: T1, Muscarinic acetylcholine receptor M1 (Homo sapiens, UniProt P11229); test: GPCRScan assay: inhibition of M1; set-up: radioligand conc. used [nm] 0.3 – 1.2, parental cells stable CHO
T1 sequence (P11229 whole entry): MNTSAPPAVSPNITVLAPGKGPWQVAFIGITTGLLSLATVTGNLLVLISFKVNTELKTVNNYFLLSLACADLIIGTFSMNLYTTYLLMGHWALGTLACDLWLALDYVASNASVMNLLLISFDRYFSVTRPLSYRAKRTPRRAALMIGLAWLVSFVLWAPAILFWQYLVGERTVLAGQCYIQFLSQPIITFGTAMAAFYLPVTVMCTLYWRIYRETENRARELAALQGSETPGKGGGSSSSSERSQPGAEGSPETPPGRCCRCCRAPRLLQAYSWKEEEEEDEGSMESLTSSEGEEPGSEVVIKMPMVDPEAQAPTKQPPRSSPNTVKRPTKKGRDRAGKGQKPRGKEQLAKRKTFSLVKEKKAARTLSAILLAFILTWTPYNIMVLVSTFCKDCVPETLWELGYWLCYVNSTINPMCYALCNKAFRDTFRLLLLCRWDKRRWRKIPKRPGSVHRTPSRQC

[39] = system: Tyrosine-protein kinase ABL1 (Homo sapiens), P00519 [Y253F]; details: Compound concentration 1000.0 nM

Structure (SMILES)	residual activity [1] [%]	residual activity [2] [%]	residual activity [3] [%]	residual activity [4] [%]	residual activity [5] [%]	residual activity [6] [%]	residual activity [7] [%]	residual activity [8] [%]	residual activity [9] [%]	residual activity [10] [%]	residual activity [11] [%]	residual activity [12] [%]	residual activity [13] [%]	residual activity [14] [%]	residual activity [15] [%]	residual activity [16] [%]	residual activity [17] [%]	residual activity [18] [%]	residual activity [19] [%]	residual activity [20] [%]	other results
CNCc1ccccc1-c1csc([C@@H](C)Nc2nc(C)nc3cc(OC)c(OC)cc23)c1 [BAY-293]	100	79	100	71	84	100	100	86	94	78	84	88	100	57	100	92	91	100	96	90	residual activity [21]: 95%; residual activity [22]: 69%; residual activity [23]: 80%; inhibition [24]: 17.1%; residual activity [25]: 80%; residual activity [26]: 97%; residual activity [27]: 78%; residual activity [28]: 97%; residual activity [29]: 100%; inhibition [30]: 94.8%; residual activity [31]: 89%; residual activity [32]: 73%; residual activity [33]: 99%; residual activity [34]: 82%; inhibition [35]: 56.8%; residual activity [36]: 72%; residual activity [37]: 100%; Ki ([38]; read-out: Ki): 238 nM; Ki ([38]; read-out: pKi (converted)): 209 nM; residual activity [39]: 94%
CNCc1ccccc1-c1csc([C@H](C)Nc2nc(C)nc3cc(OC)c(OC)cc23)c1 [BAY-294]	100	100	100	76	89	100	100	100	83	93	100	100	100	88	100	95	100	100	100	100	residual activity [21]: 94%; residual activity [22]: 84%; residual activity [23]: 85%; inhibition [24]: 16%; residual activity [25]: 91%; residual activity [26]: 100%; residual activity [27]: 79%; residual activity [28]: 90%; residual activity [29]: 100%; inhibition [30]: 83.2%; residual activity [31]: 73%; residual activity [32]: 74%; residual activity [33]: 100%; residual activity [34]: 83%; inhibition [35]: 64.8%; residual activity [36]: 97%; residual activity [37]: 100%; Ki ([38]; read-out: Ki): 314 nM; Ki ([38]; read-out: pKi (converted)): 224 nM; residual activity [39]: 94%
